This note sets out measurements from patent US20240108634A1, “COMPOSITIONS AND METHODS FOR INHIBITING YAP” (The United States Government as represented by the …, priority 2021, published 2024).

The subject of data set [1] is LN229 and GBM39 cells. The data set is described as follows: GBM cell proliferation. Format: cell-based, human. Particulars: 0.1, 1, 2 μM. The source says: (§1) Cells were layered in soft agar to evaluate anchorage-independent growth in the presence of the indicated concentrations of inhibitor and colonies counted following 14 days of growth. Representative crystal violet stained images are shown below. Data represent mean+S.D. of three independent experiments. […] Cells were placed in Boyden chambers and allowed to migrate towards BSA (white bars), vitronectin (light yellow bars), or fibronectin (dark yellow bars) (*, P<0.05; n=3). […] Representative crystal violet stained images are shown (200×). Data represent mean+S.D. of three independent experiments. […] Graphical data shown below represent mean+S.D. (late apoptosis; annexin V-positive, PI-positive) of three independent experiments.
(§2) Cell proliferation, clonogenic, migration, invasion and apoptosis assays. Cell proliferation was determined via Cell Titer-Glo® luminescent cell assays (Promega). Clonogenic assays were done by plating a total of 1,000 cells per well in 24-well plates in a total volume of 400 μL using a two-layered soft agar system as previously described (Masri J, et al. (2007) Cancer Res 67: 11712-11720). Cell migration assays were conducted using precoated modified Boyden chambers as previously described (Benavides-Serrato A, et al. (2017) PLoS One 12: e0176599). […]

Data set [2] deals with GFAP-EGFRvIII×GFAP-Cre+/Rictor glioma GEMM. The data set is described as follows: Survival of GFAP-EGFRvIII; GFAP-Cre/Rictor transgenic glioma mice. Type of data set: in vivo. How it is done: FIGS. 9A-B show GEMM survival and brain/blood plasma concentrations following treatment with NSC682769. […] C57/BL6 mice were administered NSC682769 IV and mean brain and plasma concentrations were determined via HPLC analyses. (n=5).
(§3) Animal studies. Xenografts of LN229 cells were performed in 4-6-week-old female C.B.-17-scid (Taconic) mice as previously described (Holmes B, et al. (2016) J Biol Chem 291: 14146-14159). Tumors were harvested at autopsy for immunoblot analysis. Sections of paraffin-embedded tumors on slides were processed for immunohistochemistry as previously described (Benavides-Serrato A, et al. (2017) PLoS One 12: e0176599). For GEMM studies, double transgenic GFAP-EGFRvIII; GFAP-Cre/Rictor^loxP/loxP mice as previously described were used (Bashir T, et al. (2012) PLoS One 7: e47741). Determinations of blood plasma and brain concentrations of NSC682769 following IV administration were performed in C57/BL6 mice.
NSC682769 increases survival of a glioma GEMM and penetrates the blood-brain barrier. NSC682769 was evaluated in double transgenic GFAP-EGFRvIII; GFAP-Cre/Rictor^loxP/loxP mice which overexpress both the mutant constitutively active EGFRvIII allele and the mTORC2 scaffolding component Rictor. […] To assess therapeutic activity, the effect of twice-weekly 5 or 20 mg/kg NSC682769 treatments was measured on survival.

Data set [3] in a line: Toxicity in treated mice (weight, blood cell counts, ALT, AST, creatinine). Type of data set: in vivo. The source says:
Data are expressed as percent of control mice that received vehicle and assigned 100%.
Materials and Methods. Cell culture, vectors and reagents. Normal mature human neurons were obtained from ScienCell (Carlsbad, CA). Lines were routinely tested to confirm the absence of mycoplasma and authenticated by short tandem repeat profiling (ATCC). The myc-tagged TEAD (pRK5-Myc-TEAD1) and HA-tagged YAP1 (pCl-HA-YAP) vectors were used for mammalian expression and TEAD was subcloned into pGEX-2TK, while YAP was subcloned into pET-14b for bacterial expression and purification. DNA transfections were performed using Effectene transfection reagent according to the manufacturer (QIAGEN) and lentiviral transductions were performed as previously described (Rosenbluh J, et al. (2012) Cell 151: 1457-1473). Large-scale syntheses of NSC682769 was performed by New England Discovery Partners, Branford, CT. The other reagents including kits for ALT, AST and creatinine level determinations were from Sigma-Aldrich.
NSC682769 inhibits GBM tumor growth in xenografted mice. To examine the effects of NSC682769 in vivo, the ability of the compound to inhibit the growth of LN229 xenografted tumors implanted subcutaneously in SCID mice was tested. Following implantation, when tumors reached ˜200 mm^3, mice were randomized into treatment groups receiving vehicle, 5 mg/kg/d and 20 mg/kg/d of NSC682769. […]

For data set [4], the system named is LN229 and GBM39 cells. The data set is described as follows: Soft agar colony formation (anchorage-independent growth). Particulars: LN229 and GBM39, 14 days. Format: cell-based, human.
Source text: as §1, §2

A further data set deals with LN229 xenografts. The experiment in a line: Subcutaneous LN229 xenografts in SCID mice. Format: in vivo.
Source text: Protein levels were quantified by Western analyses (inset; representative immunoblots of YAP and actin levels from tumors from the indicated tumor treatment groups), and normalized to actin levels of harvested tumors from mice with the corresponding treatments as indicated and described in Materials and Methods. […] Scale bar, 20 μm. […] Data are expressed as the number of positive apoptotic bodies (brown, indicated by arrows) divided by high power field (hpf; 10-12 hpf/tumor). Values are means+S.D., *, P<0.05. Scale bar, 20 μm.
as §3
NSC682769 inhibits GBM tumor growth in xenografted mice. To examine the effects of NSC682769 in vivo, the ability of the compound to inhibit the growth of LN229 xenografted tumors implanted subcutaneously in SCID mice was tested. Following implantation, when tumors reached ˜200 mm^3, mice were randomized into treatment groups receiving vehicle, 5 mg/kg/d and 20 mg/kg/d of NSC682769. […] The relative expression level of YAP was reduced in harvested tumors from NSC682769 treated animals (5 mg/kg; 20 mg/kg) as compared to vehicle treated animals consistent with the observed effects of the inhibitor in vitro (FIG. 5D; see also FIG. 3). Expression of the YAP-dependent genes CTGF and Cyr61 was reduced in inhibitor treated groups relative to vehicle (FIG. 5E).

Consider `COc1ccc(-c2cc(-c3ccccc3)nc3c2CC(=O)Nc2ccccc2-3)cc1OC` [NSC682769], for which the Cell growth entry in the data set with LN229 and GBM39 cells [1] is “significantly inhibited”. Also, the “Mice surviving to 20 weeks” value in data set [2] (5 mg/kg twice weekly) was 60%. In addition, the “Mice surviving at 20 weeks” value in data set [2] (20 mg/kg twice weekly) is reported as “more than 75%”. Moreover, in data set [3] (5 and 20 mg/kg/d), the “Overt toxicity or weight loss” value is reported as “No overt short or long-term toxicity or weight loss”. Moreover, the “Blood cell counts, serum ALT, AST, creatinine” value in data set [3] (daily IP, 5 days, 5 or 20 mg/kg/d) is on record as “neither blood cell counts nor serum alanine aminotransferase (ALT), aspartate aminotransferase (AST) or creatinine levels were affected”. Also, the “Clonogenic growth in soft agar” value with LN229 and GBM39 cells [4] is “inhibited”. The Tumor growth delay with LN229 xenografts (5 mg/kg/d) is 11 days; with LN229 xenografts (20 mg/kg/d), 16 days. The “Tumor growth inhibition at end of dosing period” value turned out to be 66% in the data set on LN229 xenografts (5 mg/kg/d) and 83% with LN229 xenografts (20 mg/kg/d). Further, in the data set with LN229 xenografts (5 mg/kg, 20 mg/kg versus vehicle), the “Relative expression level of YAP in harvested tumors” value is given as “reduced”. Moreover, in the data set with LN229 xenografts (5 and 20 mg/kg/d), the “Overall survival relative to vehicle” value is “markedly extended”. Besides, in the data set on LN229 xenografts (both dosing regimens versus vehicle), the Harvested tumor weights entry is “significant reduction”. Besides, in the data set on LN229 xenografts (both dosing regimens, day 12), the “Apoptosis by TUNEL staining of tumors” value is “enhancement of apoptotic death”. For the same compound, in the data set with LN229 xenografts (day 12 after start of treatment), the “Ki-67 staining of harvested tumors” value is given as “reduction”. Further, the “Expression of CTGF and Cyr61 in harvested xenografts” value in the data set with LN229 xenografts (treated groups versus vehicle) is reported as “reduced”.
